{"source": "patent EP1101492A1", "about": "“NOVEL REMEDIES FOR ALLERGIC DISEASES” (FUJI YAKUHIN KOGYO KABUSHIKI KAISHA, priority 1998, dated 2000)", "key": {"allergic peritonitis": {"system": "allergic peritonitis", "test": "Allergic peritonitis induced with ovalbumin (peritoneal exudate cells)", "type": "in vivo, Balb/c mice", "conditions": "ovalbumin challenge", "protocol": "Twenty four hours after induction, mice were sacrificed under ether […] and each penitoneal cavity was lavaged twice or thrice with a washout medium (total volume: 5 mL, physiological saline containing 10 units/mL of heparin). Peritoneal exudate cells (PEC) were harvested in a siliconized glass tube. The retrieved washout medium was measured for its yield (mL) and the number of exudate cells therein by using Turk solution and counting on a haemocytometer and a total number of PEC was calculated. An aliquot thereof (an extent of approximately 20,000 cells of PEC) was taken. Specimens for staining were prepared using Cytospin 3 (CHANDON), and PEC was stained with Dif-Quick solution (International Reagents Corporation). After staining, PEC was subjected to fractional counts under a microscope with classification into eosinophils, neutrophils, lymphocytes/macrophages and basophils based on their form and stain nature (more than 500 PEC per specimen were randomly counted). […] After counting, intraperitoneal exudation inhibition rates were calculated by the following formula and expressed as the therapeutic efficacies: Inhibition Rate (%) =[1 -((PEC in Sensitized/Drug-Treated Mouse) - (PEC in Unsensitized/Saline-Treated Mouse))/((PEC in Sensitized/Saline-Treated Mouse) - (PEC in Unsensitized/Saline-Treated Mouse))]× 100 [formula]\nA physiological saline solution containing ovalbumin (0.25 mg/mL) and an aluminum hydroxide gel (4 mg/mL) was administered subcutaneously to male Balb/c mice (7 weeks old, 20 to 23 g, purchased from JAPAN SLC, Inc.) twice at one week interval at a single dose of 0.4 mL for sensitization. On Day 14 after the initial sensitization, an antigen solution for induction (2.5 µg/mL) was administered intraperitoneally to each animal at a dose of 0.4 mL to raise allergic peritonitis. Compound No. 130 (30 mg/kg) or a negative control solvent, physiological saline (10 mL/kg), was administered intraperitoneally to each animal 5 minutes prior to induction, 3 and 6 hours post-induction.\nSimilarly to Example 24, the peritoneal cavities were lavaged to retrieve PEC. The drained liquids were measured for their yield and total PEC number therein. In the same manner as in Example 24, PEC was stained and subjected to fractional counting under a microscope based on their form. […] Similarly to Example 24, basophils and neutrophils were excluded from subjects to be examined. In the same manner as in Example 24, intraperitoneal exudation inhibition rates were calculated and expressed as the therapeutic efficacies.\nIn the same manner as in Example 25, male Balb/c mice were sensitized with ovalbumin and an aluminum hydroxide gel, and, on Day 14 after the initial sensitization, treated with an antigen solution to raise allergic peritonitis. Compound No. […]\nSimilarly to Example 24, the peritoneal cavities were lavaged to retrieve PEC 24 hours after induction. The drained liquids were measured for their yield and total PEC number therein."}, "[1]": {"system": "allergic inflammation models (air pouch models)", "test": "Allergic inflammation model (air pouch model): leukocyte infiltration", "type": "in vivo, rats", "conditions": "10 mg/kg or 30 mg/kg, into the air pouch at the second challenge or systemically 30 minutes prior; exudate 8 hours after second challenge; dexamethasone 0.1 mg/kg as comparison", "protocol": "Compound No. 130 was dissolved in physiological saline to make the final concentration 2.5 mg/mL (equal to 10 mg/kg) or 7.5 mg/mL (equal to 30 mg/kg) and administered into an air pouch of animals or intraperitoneally at a dose of 4 mL/kg. Dexamethasone was also dissolved in physiological saline to make the final concentration 25 µg/mL (equal to 0.1 mg/kg) and administered into an air pouch of animals at a dose of 4 mL/kg. Administration into such an air pouch was conducted simultaneously with the second challenge while the intraperitoneal administration was 30 minutes prior to the second challenge. Acetylated bovine serum albumin diazo-coupled with arsanilic acid (ABA-AcBSA) was prepared according to the Ouchi et al. and Tabachnick et al. methods as disclosed in Ouchi et al., \"Seibutsu Yakukagaku Jikken Koza, Ensho To Allergy (Inflammation and Allergy) I-2\", pp.194 to 206, Hirokawa Publishing Co., Japan and Tabachnick et al., The Journal of Biological Chemistry, 234: 1726- 1730, 1959, and mixed with a Freund's complete adjuvant (Difco) at an equal ratio. The mixture was treated using a connection-type glass syringe to form an emulsion which was used as a sensitizing solution. […] The retrieved exudates were measured by a dye-exclusion method using a haematocytometer and the number of exudated leukocytes were counted."}, "[2]": {"conditions": "30 mg/kg i.p. 5 minutes prior to induction, 3 and 6 hours post-induction"}, "[3]": {"conditions": "30 mg/kg s.c. 6 hours and 5 minutes prior to induction, 24 hours after induction"}}, "data": [{"compound": "CNC(=O)[C@H](Cc1ccc(NC(=N)N)cc1)NC(=O)[C@H](CC(C)C)C(CCCc1ccccc1)C(=O)NO", "note": "(single isomer, unassigned) [Compound No. 130, N-[4-(N-Hydroxyamino)-2(R)-isobutyl-3(R or S)-(3-phenyltrimethylene)succinyl)-L-4'-guanidophenylalanine-N-methylamide 1 acetate]", "values": [{"measurement": "inhibition of infiltration of eosinophils into the peritoneal cavity", "setting": "allergic peritonitis; [2]", "result": 56.3, "unit": "%"}, {"measurement": "inhibition of infiltration of lymphocytes/macrophages into the peritoneal cavity", "setting": "allergic peritonitis; [2]", "result": 74.9, "unit": "%"}, {"measurement": "reduction of total PEC numbers", "setting": "allergic peritonitis; [2]", "result": 70.7, "unit": "%"}, {"measurement": "inhibition of infiltration of eosinophils into the peritoneal cavity", "setting": "allergic peritonitis; [3]", "result": 38.6, "unit": "%"}, {"measurement": "inhibition of infiltration of lymphocytes/macrophages into the peritoneal cavity", "setting": "allergic peritonitis; [3]", "result": 91.2, "unit": "%"}, {"measurement": "reduction of total PEC numbers", "setting": "allergic peritonitis; [3]", "result": 68.5, "unit": "%"}, {"measurement": "infiltration of leukocytes into an air pouch (FIG. 14)", "setting": "[1]", "result": "significantly inhibited"}]}]}
